What was measured:
[1] = in mice; cited from earlier work
[2] = GABA supplementation at 30 g/MT; Li et al. 2015, Bi et al. 2020; cited from earlier work
[3] = OP at 1000 mg/kg feed, positive control 30 g GABA per ton of feed

For `NCCCC(=O)O` [GABA, Gamma-aminobutyric acid], the “half-life of GABA in the body” value [1] is given as “less than 17 min”, the biting incidences [2] is given as “lower” and the growth performance [2] is given as “increase”. The stress-related parameters [2] was “improve”, the “fold change (compared to day 0) of plasma COR as stress indicator” value [3] was 0.70 and the “fold change (compared to day 0) of plasma NPY as stress-resistance indicator” value [3] was 0.51. For the same compound, the “plasma GABA fold change compared to day 0” value ([3]; day 12) was 1.07.
